For 58 compounds, RP-LC retention time results are on record in the METLIN SMRT retention time set (Domingo-Almenara et al. 2019).

The structures appear in SMILES notation.

This data set can be described thus: gradient 5% acetonitrile 3 min, to 50% in 2 min, to 85% in 15 min, held 3 min, 100 µL/min. Particulars: column: Zorbax Extend-C18 2.1 x 50 mm; eluents: water / acetonitrile, 0.1% formic acid. Summed up: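 The system's dead and dwell volumes were 40 μL and 900 μL, with a Zorbax Extend-C18 column (2.1 × 50 mm, 1.8 μm) run at 100 μL/min in water and acetonitrile containing 0.1% formic acid each. Pure standards were analyzed in mixtures of ~100 molecules by HPLC–quadrupole time-of-flight mass spectrometry in positive and negative ionization mode. Retention time was assigned from computationally picked, manually inspected adduct peaks.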
As for `N#Cc1cccc(NC(=O)Cn2cnc3nc4c(cc3c2=O)CCCC4)c1`, the RP-LC retention time is 700 s.

`Cc1cc(C(=O)N2CCCCC2)c2c(=O)n(Cc3nc(-c4cccs4)oc3C)c(=O)n(C)c2n1` gave an RP-LC retention time of 955 s.

In turn, `Cc1ccc(NC(=O)Cn2nc3c(Oc4ccc(Cl)cc4)nccn3c2=O)cc1` gave an RP-LC retention time of 864 s.

Regarding `CS(=O)(=O)N1CCC(OC2CCN(C(=O)Nc3cccc(F)c3)CC2)CC1`, the RP-LC retention time amounted to 720 s.

In the case of `O=S(=O)(c1ccc2c(c1)CCC2)N1CCC(Cc2nc(-c3cccnc3)n[nH]2)C1` (stereo not drawn), the RP-LC retention time is 694 s.

Compound `O=C([C@@H]1C[C@H](Oc2ccccc2)CN1C(=O)c1ccoc1)N1CCCC1` registered an RP-LC retention time of 733 s.

`O=C(NC1CCCCCC1)C1CCCN(c2nccnc2Oc2ccccc2)C1` (stereo not drawn) came in with an RP-LC retention time of 1060 s.

`O=C(Cn1ccc2ccc(N3CCOCC3)nc21)NCc1ccc(F)c(Cl)c1`: the RP-LC retention time was 920 s.

`CCN1C(=O)COc2ccc(-c3nc(NC(=O)c4ccc(F)cc4)sc3C)cc21` yielded an RP-LC retention time of 1050 s.

Turning to `O=C1CC2(CCCC2)CC(=O)N1CCNCC1COc2ccccc2O1` (stereo not drawn), the RP-LC retention time amounted to 747 s.

`COCc1noc([C@@H]2CC(F)(F)CN2C(=O)C2CCCC2)n1` had an RP-LC retention time of 810 s.

`COc1ccccc1N1CCN(c2ncc3c(n2)CCN(Cc2cccc(F)c2)C3)CC1` yielded an RP-LC retention time of 808 s.

Compound `COCCCn1c(=O)c2ccccc2n(Cc2nc(-c3ccc(Br)cc3)no2)c1=O` yielded an RP-LC retention time of 1120 s.

Consider `COc1cccc(C(O)CN2CCN(c3cccc(C)c3C)CC2)c1` (stereo not drawn), for which the RP-LC retention time stood at 614 s.

Turning to `c1cncc(-c2nnc3sc(-c4ccc5c(c4)OCCO5)nn23)c1`, the RP-LC retention time was found to be 827 s.

As for `CC(C)(CO)NCc1ccc(-c2ccc(Cl)cc2)o1`, the RP-LC retention time is 655 s.

For the compound `CC(C)C(=O)N1CCCCCCNC(=O)[C@@H]2CCCC[C@@H]21`, the RP-LC retention time was determined as 777 s.

In turn, `COc1ccc(-c2noc(C3(NC(=O)c4cc(C)cc(C)c4)CCCCC3)n2)cc1` showed an RP-LC retention time of 1250 s.

Take `O=C(N1CC(Oc2ccc(-c3noc(-c4ccccc4)n3)cc2)C1)C1(c2ccccc2)CC1`: the RP-LC retention time turned out to be 1320 s.

Take `Cc1c(NC(=O)c2cccs2)c(=O)n(-c2ccccc2)n1C`: the RP-LC retention time was determined as 600 s.

Take `CCN1C(=O)CCc2cc(NC(=O)Cc3ccc(OC)c(Cl)c3)ccc21`: the RP-LC retention time was determined as 798 s.

In turn, `O=C1[C@H]2CN(Cc3cccc(Cl)c3)C[C@H]2C(=O)N1CCN1CCc2ccccc2C1` returned an RP-LC retention time of 659 s.

`Cc1ccc(Nc2nc(C(=O)NCc3ccc(C)o3)nc3ccccc23)cc1` returned an RP-LC retention time of 847 s.

With `COCCCNC(=O)CN1c2ccccc2NC2=C(C(=O)CC(C)(C)C2)C1c1ccc(C)cc1` (stereo not drawn), the RP-LC retention time turned out to be 822 s.

The compound `Cc1cc(-c2nnc(C3CCC3)o2)c(C)n1CC(=O)NCc1cccc(C(F)(F)F)c1` yielded an RP-LC retention time of 937 s.

Compound `CCOc1ccc(N(C)S(=O)(=O)c2ccsc2C(=O)NCCCc2ccccc2)cc1` yielded an RP-LC retention time of 1210 s.

In the case of `COc1ccc(-c2nc3ccccn3c2NC(=O)c2ccc(Cl)c([N+](=O)[O-])c2)cc1`, the RP-LC retention time worked out at 720 s.

As for `COc1ccccc1C(=O)Oc1ccc(N(C)C2=NS(=O)(=O)c3ccccc32)cc1`, the RP-LC retention time worked out at 910 s.

As to `O=C(c1ccc2nc[nH]c2c1)N1CCC(c2nc(-c3ccccc3)no2)C1` (stereo not drawn), the RP-LC retention time was determined as 626 s.

In turn, `CCCNC(=O)N1CCC(c2noc(-c3ccncc3)n2)C1` (stereo not drawn) came in with an RP-LC retention time of 642 s.

`Cc1cc(-c2nnc(C3CC3)o2)c(C)n1CC(=O)NCc1ccc(F)cc1F` showed an RP-LC retention time of 811 s.

`O=C(Nc1cccc(C(F)(F)F)c1)N(Cc1ccsc1)C1CC1` displayed an RP-LC retention time of 1030 s.

For `CCC(C)C(NC(=O)c1cc(OC)c(OC)c(OC)c1)C(=O)Nc1nc2ccccc2[nH]1` (stereo not drawn), the RP-LC retention time stood at 725 s.

On to `CCc1nc(OCC(=O)Nc2ccccc2Br)c2ccccc2n1`, for which the RP-LC retention time amounted to 827 s.

`COCCCNC(=O)N1CCCC(C)(C(=O)NCc2ccccc2C)C1` (stereo not drawn): the RP-LC retention time was found to be 720 s.

Take `CC(C)(C)c1ccc(/C=C/C(=O)Nc2ccc3c(c2)OCCO3)cc1`: the RP-LC retention time was 1190 s.

`CCc1ccc(-n2ncc3c(=O)n(Cc4nc(-c5ccc(OC)cc5)no4)cnc32)cc1` came in with an RP-LC retention time of 1120 s.

In the case of `CC(=O)N1CCc2cc(-c3ccc(C(=O)NCCN4CCCC4)cc3)ccc21`, the RP-LC retention time was determined as 607 s.

For the compound `O=C(Nc1ccc2ccccc2c1)c1ccc(Cl)cc1Cl`, the RP-LC retention time worked out at 1130 s.

For the compound `COc1cc(N2CCN(C(=O)c3cnccn3)CC2)nc(C)n1`, the RP-LC retention time was found to be 515 s.

Turning to `CNC(=O)c1ccc(Nc2c(-c3ccccc3)nc3cnccn23)cc1`, the RP-LC retention time stood at 644 s.

In turn, `O=C(NCCCN1CCCC1)C1CCN(c2nccnc2Sc2ccccc2)CC1` yielded an RP-LC retention time of 650 s.

As to `CC(=O)Nc1nsc(N2CCC(C(=O)NCc3ccccc3F)CC2)n1`, the RP-LC retention time was determined as 659 s.

Compound `O=S(=O)(c1cccc(Cl)c1)N1CC(F)(F)C[C@H]1CN1CCc2ccccc2C1` displayed an RP-LC retention time of 788 s.

In the case of `Cc1ccc(NC(=O)N2CCc3cn(C)c4cccc(c34)C2)cc1C`, the RP-LC retention time came out at 981 s.

Regarding `O=C(NCCN1CCCCCC1)c1ccc2c(c1)NC(=O)C1CCCCN21` (stereo not drawn), the RP-LC retention time turned out to be 601 s.

`COc1ccc(-c2nc(-c3cn(Cc4ccc(F)cc4)nn3)no2)cc1OC` showed an RP-LC retention time of 914 s.

Consider `CCOc1ccc(-c2noc(CN3N=NC4C(=O)N(c5ccc(CC)cc5)C(=O)C43)n2)cc1OC` (stereo not drawn), for which the RP-LC retention time was 1030 s.

As to `Cc1ccc(C(=O)N2CCN(c3nnc4cccc(C)n34)CC2)cc1F`, the RP-LC retention time came to 667 s.

Regarding `Cc1ccnc(SCC(=O)Nc2nc(-c3ccccc3)cs2)n1`, the RP-LC retention time is 917 s.

As for `COc1ccc(OC)c(NC(=O)N2CCc3c(c(-c4nnc(-c5ccc(F)cc5)o4)nn3C)C2)c1`, the RP-LC retention time worked out at 876 s.

Consider `CCOc1ccc(NC(=O)COc2cc(C)nc(N3CCCC3)n2)cc1`, for which the RP-LC retention time is 649 s.

Compound `Cc1ccc(CNC(=O)C2CCCN(c3nnc(C)c4c(C)n(-c5ccc(Cl)cc5)nc34)C2)cc1` (stereo not drawn) returned an RP-LC retention time of 784 s.

For the compound `COc1ccc(C2Cn3nnc(-c4nc(-c5ccccc5Cl)no4)c3CO2)cc1` (stereo not drawn), the RP-LC retention time is 1150 s.

The compound `CC(=O)Nc1ccc(OCCOc2ccc([N+](=O)[O-])cc2)cc1` displayed an RP-LC retention time of 862 s.

With `CC1(C)CC(=O)c2cn(-c3ccccc3)c(=O)c(C(=O)N3CCOCC3)c2C1`, the RP-LC retention time came out at 694 s.

The compound `O=c1c2ccccc2n(Cc2nc(-c3cccc(Br)c3)no2)c(=O)n1CC1CCCO1` (stereo not drawn) displayed an RP-LC retention time of 1150 s.

For the compound `CCCn1cc(C(=O)NCCC2=CCCCC2)c2nn(-c3ccccc3)c(=O)c-2c1`, the RP-LC retention time was found to be 1090 s.
